Laboratory results published in US12114658B2, “Compounds having a nitrogen-containing unsaturated six-membered ring and agricultural and horticultural fungicides containing the same as active ingredients” (MITSUI CHEMICALS CROP & LIFE SOLUTIONS, INC., priority 2018, dated 2024).

What was measured:
[1] = tested on: Colletotrichum orbiculare; test: Test Example H: anthracnose on cucumber; details: in Cucumis sativus, read-out: control value
Experimental: (§1) Disease development in Test Examples described below was evaluated in increments of 0.05 by setting 0 as no incidence of disease and 3 as disease development in a plant of untreated group. Further, control values were calculated using the following equation based on disease development.
(§2) <Control Value> Control value=100{1−(n/3)} • n=Disease development of each treated group
Seeds of a test plant (cucumber variety: Sagami Hanjiro) were planted and cultivated until the first leaf appeared. In the test, the inventive compounds were dissolved into a dimethyl sulfoxide-methanol mixture solution (volume ratio: 9/1), and the resultant solutions were diluted with well water to a concentration of 250 ppm. The thus-obtained dilutions were sprayed to the test plant (2.5 ml/pot). After the dilutions dried, a conidial suspension (2-4×10^5 conidia/ml) of Colletotrichum orbiculare was inoculated to the plant by spraying. After the inoculation, the plant was kept in a mist chamber at room temperature of 20 to 23° C. for about 24 hours to promote the onset of disease. The disease development was investigated 6 to 10 days after the inoculation, and the effectiveness of the dilutions was evaluated.

[2] = tested on: Alternaia brassicicola; test: Test Example C: Alternaria sooty spot on cabbage; details: Brassica oleracea, read-out: control value
Experimental: as §1, §2
Seeds of a test plant (cabbage variety: Shikidori) were planted and cultivated until the cotyledons extended. In the test, the inventive compounds were dissolved into a dimethyl sulfoxide-methanol mixture solution (volume ratio: 9/1), and the resultant solutions were diluted with well water to a concentration of 250 ppm. The thus-obtained dilutions were sprayed to the test plant (2.5 ml/pot). After the dilutions dried, a conidial suspension (4-8×10^5 conidia/ml) of Alternaia brassicicola was inoculated to the plant by spraying. After the inoculation, the plant was kept in a mist chamber at room temperature of 20 to 23° C. for about 48 hours to promote the onset of disease. The disease development was investigated 2 to 3 days after the inoculation, and the effectiveness of the dilutions was evaluated.

[3] = tested on: Puccinia recondita; test: Test Example E: brown rust on wheat; type: in vivo; details: 250 ppm spray (2.5 ml/pot) before inoculation, wheat variety Norin 61, investigated 7 to 10 days after inoculation
[4] = tested on: Magnaporthe grisea; test: whole plant or invertebrate; type: in vivo; details: Pyricularia oryzae, in Oryza sativa, read-out: control value

Measured: pest or weed control at 250 ppm

CCn1c(-c2ccccc2)c(-n2cnc(Cl)c2Cl)ccc1=O [IM-001, 5-(4,5-dichloro-1H-imidazol-1-yl)-1-ethyl-6-phenylpyridine-2(1H)-one]
> 50%: all assays above

CCn1c(-c2ccccc2)c(-n2cnc(Cl)c2Cl)cc(Cl)c1=O [IM-003, 3-chloro-5-(4,5-dichloro-1H-imidazol-1-yl)-1-ethyl-6-phenylpyridine-2(1H)-one]
> 50%: all assays above

CCn1c(-c2ccc(OC)cc2)c(-n2ncc(C)c2Cl)cc(Cl)c1=O [PY-018, 3-chloro-5-(5-chloro-4-methyl-1H-pyrazol-1-yl)-1-ethyl-6-(4-methoxyphenyl)pyridine-2(1H)-one]
> 50%: all assays above

COc1ccc(-c2c(-n3cc(C)cn3)ccc(=O)n2CC(F)F)cc1 [PY-031, 1-(2,2-difluoroethyl)-6-(4-methoxyphenyl)-5-(4-methyl-1H-pyrazol-1-yl)pyridine-2(1H)-one]
> 50%: [2]

COc1ccc(-c2c(-n3ncc(C)c3Cl)cc(Cl)c(=O)n2CC(F)F)cc1 [PY-032, 3-chloro-5-(5-chloro-4-methyl-1H-pyrazol-1-yl)-1-(2,2-difluoroethyl)-6-(4-methoxyphenyl)pyridine-2(1H)-one]
> 50%: all assays above

CCn1c(-c2ccc(OC)cc2)c(-n2cc(C)cn2)ccc1=O [PY-036, 1-ethyl-6-(4-methoxyphenyl)-5-(4-methyl-1H-pyrazol-1-yl)pyridine-2(1H)-one]
> 50%: [1] | [2]

CCn1c(-c2ccc(O)cc2)c(-n2ncc(C)c2Cl)cc(Cl)c1=O [PY-041, 3-chloro-5-(5-chloro-4-methyl-1H-pyrazol-1-yl)-1-ethyl-6-(4-hydroxyphenyl)pyridine-2(1H)-one]
> 50%: [2] | [3] | [4]

CCn1c(-c2ccc(OCC(F)F)cc2)c(-n2ncc(C)c2Cl)cc(Cl)c1=O [PY-046, 3-chloro-5-(5-chloro-4-methyl-1H-pyrazol-1-yl)-6-(4-(2,2-difluoroethoxy)phenyl)-1-eth ylpyridine-2(1H)-one]
> 50%: [2] | [3] | [4]

CCn1c(-c2ccc(F)cc2)c(-n2nccc2C(F)(F)F)cc(Cl)c1=O [PY-090, 3-chloro-1-ethyl-6-(4-fluorophenyl)-5-(5-(trifluoromethyl)-1H-pyrazol-1-yl)pyridine-2(1H)-one]
> 50%: all assays above

CCn1c(-c2ccc(F)cc2)c(-n2nccc2Cl)cc(Cl)c1=O [PY-104, 3-chloro-5-(5-chloro-1H-pyrazol-1-yl)-1-ethyl-6-(4-fluorophenyl)pyridine-2(1H)-one]
> 50%: all assays above

COn1c(-c2ccc(F)cc2)c(-n2cc(C)cn2)ccc1=O [PY-374, 6-(4-fluorophenyl)-1-methoxy-5-(4-methyl-1H-pyrazol-1-yl)pyridin-2(1H)-one]
> 50%: [2]

COn1c(-c2ccc(F)cc2)c(-n2cc(C)cn2)cc(Br)c1=O [PY-381, 3-bromo-6-(4-fluorophenyl)-1-methoxy-5-(4-methyl-1H-pyrazol-1-yl)pyridin-2 (1H)-one]
> 50%: [1] | [2]

COn1c(-c2ccc(F)cc2)c(-n2ncc(C)c2Cl)cc(Br)c1=O [PY-382, 3-bromo-5-(5-chloro-4-methyl-1H-pyrazol-1-yl)-6-(4-fluorophenyl)-1-methoxypyridin-2(1H)-one]
> 50%: all assays above
